Measurements published in patent publication US10457691B2, “Macrocyclic kinase inhibitors and uses thereof” (Dana-Farber Cancer Institute, Inc., priority 2014, dated 2019).

Legend:
Format in all cases: biochemical
Details in all cases: read-out: Activity of the protein kinase when treated with compound I-1 (% control)
ERK2 = ERK2 (Homo sapiens, UniProt P28482); test: Protein kinase assay ([γ-32P] ATP), ERK2
Protocol: (§1) In another set of experiments, the activities of the compounds described herein against various protein kinases were determined according to the methods reported in Hastie et al., Nature Protocols, 2006, 1, 968-971.
(§2) Enzyme dilution buffer. This buffer consisted of 50 mM Tris-HCl, pH 7.5, 0.1 mM EGTA, 1 mg ml^−1 bovine serum albumin and 0.1% (vol/vol) 2-mercaptoethanol.
(§3) 10× concentrated assay buffer. An assay buffer of 500 mM Tris-HCl, pH 7.5, 1 mM EGTA, and 100 mM magnesium acetate was used for assay of a wide variety of protein kinases. In some experiments, other cofactors were included (e.g., calcium ions and calmodulin were included for assay of calcium-calmodulindependent protein kinases).
(§4) 1 mM [γ-^32P] ATP. The specific activity of the [γ-^32P] ATP solution was 1×10^5 to 1×10^6 c.p.m. per nmol depending on what was needed to produce an optimal signal/noise ratio. […] To measure the concentration of ATP, a sample of such a stock solution was diluted to 20 μM, and the absorbance of the diluted sample was measured at 259 nm. The absorbance of a 20-μM stock solution of ATP at 259 nm was about 0.31. […] ATP to produce a radioactivity of 1×10^5 to 1×10^6 c.p.m. per nmol. […]
(§5) 13) Measure radioactivity in the samples by Cerenkov counting (e.g., without liquid scintillation fluid) in a liquid scintillation counter using a “^32P program”. […]

ZAP70 = ZAP70 (Homo sapiens, UniProt P43403); test: Protein kinase assay ([γ-32P] ATP), ZAP70
Protocol: as §1, §2, §3, §4, §5

MST3 = MST3 (Homo sapiens, UniProt Q9Y6E0); test: Protein kinase assay ([γ-32P] ATP), MST3
Protocol: as §1, §2, §3, §4, §5

TTK = TTK (Homo sapiens, UniProt P33981); test: Protein kinase assay ([γ-32P] ATP), TTK
Chain of TTK (P33981 whole entry, species assumed): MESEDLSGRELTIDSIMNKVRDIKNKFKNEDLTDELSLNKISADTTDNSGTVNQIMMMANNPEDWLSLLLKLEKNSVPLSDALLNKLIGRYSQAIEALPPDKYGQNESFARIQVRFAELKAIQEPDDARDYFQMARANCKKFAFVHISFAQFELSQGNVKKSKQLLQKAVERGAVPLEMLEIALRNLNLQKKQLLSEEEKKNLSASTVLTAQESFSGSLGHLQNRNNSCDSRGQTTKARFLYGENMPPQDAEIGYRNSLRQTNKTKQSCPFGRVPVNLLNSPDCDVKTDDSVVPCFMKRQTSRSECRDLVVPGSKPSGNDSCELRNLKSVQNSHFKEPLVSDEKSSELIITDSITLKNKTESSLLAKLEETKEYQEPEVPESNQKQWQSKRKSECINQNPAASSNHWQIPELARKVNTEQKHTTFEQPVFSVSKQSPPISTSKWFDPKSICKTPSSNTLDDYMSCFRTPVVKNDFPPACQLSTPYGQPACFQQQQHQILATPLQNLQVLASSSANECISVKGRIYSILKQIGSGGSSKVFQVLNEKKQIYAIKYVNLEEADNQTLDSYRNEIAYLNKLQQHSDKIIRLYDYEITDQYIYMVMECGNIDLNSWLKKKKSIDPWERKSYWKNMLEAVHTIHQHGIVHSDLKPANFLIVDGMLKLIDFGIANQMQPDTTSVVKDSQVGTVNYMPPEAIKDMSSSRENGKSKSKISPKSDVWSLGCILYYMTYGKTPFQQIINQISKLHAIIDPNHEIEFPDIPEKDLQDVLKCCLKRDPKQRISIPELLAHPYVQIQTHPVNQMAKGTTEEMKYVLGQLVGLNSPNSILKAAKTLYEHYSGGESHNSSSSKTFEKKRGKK
Protocol: as §1, §2, §3, §4, §5

Src = Src (Homo sapiens, UniProt P12931); test: Protein kinase assay ([γ-32P] ATP), Src
Protocol: as §1, §2, §3, §4, §5

MSK1 = MSK1 (Homo sapiens, UniProt O75582); test: Protein kinase assay ([γ-32P] ATP), MSK1
Protocol: as §1, §2, §3, §4, §5

EPH-B1 = EPH-B1 (Homo sapiens, UniProt P54762); test: Protein kinase assay ([γ-32P] ATP), EPH-B1
Protocol: as §1, §2, §3, §4, §5

MKK2 = MKK2 (Homo sapiens, UniProt P36507); test: Protein kinase assay ([γ-32P] ATP), MKK2
Chain of MKK2 (P36507 whole entry): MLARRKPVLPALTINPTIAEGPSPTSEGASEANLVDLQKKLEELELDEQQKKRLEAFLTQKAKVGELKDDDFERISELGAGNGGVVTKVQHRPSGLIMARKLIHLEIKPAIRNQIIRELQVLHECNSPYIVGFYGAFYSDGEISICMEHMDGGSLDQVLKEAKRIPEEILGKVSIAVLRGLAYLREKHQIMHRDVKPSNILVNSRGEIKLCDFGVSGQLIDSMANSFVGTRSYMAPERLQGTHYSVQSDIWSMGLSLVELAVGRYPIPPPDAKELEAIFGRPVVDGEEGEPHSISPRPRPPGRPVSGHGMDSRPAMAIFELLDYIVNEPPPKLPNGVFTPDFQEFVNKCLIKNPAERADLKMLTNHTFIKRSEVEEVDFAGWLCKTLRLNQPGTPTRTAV
Protocol: as §1, §2, §3, §4, §5

NUAK1 = NUAK1 (Homo sapiens, UniProt O60285); test: Protein kinase assay ([γ-32P] ATP), NUAK1
Chain of NUAK1 (O60285 whole entry): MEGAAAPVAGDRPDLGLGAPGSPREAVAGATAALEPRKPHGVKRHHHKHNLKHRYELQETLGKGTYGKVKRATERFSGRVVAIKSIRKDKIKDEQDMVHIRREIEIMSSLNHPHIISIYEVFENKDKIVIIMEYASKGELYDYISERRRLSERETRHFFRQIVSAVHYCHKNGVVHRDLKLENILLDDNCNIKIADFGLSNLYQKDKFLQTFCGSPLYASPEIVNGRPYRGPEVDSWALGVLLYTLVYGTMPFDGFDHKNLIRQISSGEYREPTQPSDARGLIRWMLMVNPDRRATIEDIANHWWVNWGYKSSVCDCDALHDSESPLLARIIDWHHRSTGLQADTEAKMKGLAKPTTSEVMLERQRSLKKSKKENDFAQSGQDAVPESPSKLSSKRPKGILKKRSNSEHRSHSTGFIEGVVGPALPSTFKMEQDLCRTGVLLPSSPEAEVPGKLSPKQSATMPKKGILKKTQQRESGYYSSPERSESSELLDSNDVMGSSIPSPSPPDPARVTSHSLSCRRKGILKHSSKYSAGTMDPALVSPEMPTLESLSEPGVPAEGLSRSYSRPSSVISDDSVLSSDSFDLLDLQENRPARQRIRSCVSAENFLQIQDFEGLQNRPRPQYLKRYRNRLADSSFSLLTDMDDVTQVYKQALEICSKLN
Protocol: as §1, §2, §3, §4, §5

PIM1 = PIM1 (Homo sapiens, UniProt P11309); test: Protein kinase assay ([γ-32P] ATP), PIM1
Chain of PIM1 (P11309 whole entry): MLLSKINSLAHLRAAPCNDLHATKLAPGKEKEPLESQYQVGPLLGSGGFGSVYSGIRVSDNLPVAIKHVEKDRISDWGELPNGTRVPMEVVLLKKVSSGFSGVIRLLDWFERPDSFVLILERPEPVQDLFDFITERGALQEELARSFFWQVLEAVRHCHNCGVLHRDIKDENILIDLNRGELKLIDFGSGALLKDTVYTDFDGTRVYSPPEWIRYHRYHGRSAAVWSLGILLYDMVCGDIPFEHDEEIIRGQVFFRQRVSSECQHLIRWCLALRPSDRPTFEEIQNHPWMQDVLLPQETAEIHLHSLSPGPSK
Protocol: as §1, §2, §3, §4, §5

MAPKAP-K3 = MAPKAP-K3 (Homo sapiens, UniProt Q16644); test: Protein kinase assay ([γ-32P] ATP), MAPKAP-K3
Chain of MAPKAP-K3 (Q16644 whole entry): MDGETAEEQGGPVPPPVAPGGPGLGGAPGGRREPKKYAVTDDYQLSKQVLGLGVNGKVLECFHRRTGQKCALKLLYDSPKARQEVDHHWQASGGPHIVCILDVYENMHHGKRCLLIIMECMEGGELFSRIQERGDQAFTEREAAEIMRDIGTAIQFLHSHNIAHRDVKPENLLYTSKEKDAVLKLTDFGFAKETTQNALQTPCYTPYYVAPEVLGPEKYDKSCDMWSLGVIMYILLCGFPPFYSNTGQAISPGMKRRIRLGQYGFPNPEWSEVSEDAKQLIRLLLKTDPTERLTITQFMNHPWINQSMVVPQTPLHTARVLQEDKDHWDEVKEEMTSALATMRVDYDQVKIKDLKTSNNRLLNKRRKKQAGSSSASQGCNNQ
Protocol: as §1, §2, §3, §4, §5

BRSK1 = BRSK1 (Homo sapiens, UniProt Q8TDC3); test: Protein kinase assay ([γ-32P] ATP), BRSK1
Chain of BRSK1 (Q8TDC3 whole entry): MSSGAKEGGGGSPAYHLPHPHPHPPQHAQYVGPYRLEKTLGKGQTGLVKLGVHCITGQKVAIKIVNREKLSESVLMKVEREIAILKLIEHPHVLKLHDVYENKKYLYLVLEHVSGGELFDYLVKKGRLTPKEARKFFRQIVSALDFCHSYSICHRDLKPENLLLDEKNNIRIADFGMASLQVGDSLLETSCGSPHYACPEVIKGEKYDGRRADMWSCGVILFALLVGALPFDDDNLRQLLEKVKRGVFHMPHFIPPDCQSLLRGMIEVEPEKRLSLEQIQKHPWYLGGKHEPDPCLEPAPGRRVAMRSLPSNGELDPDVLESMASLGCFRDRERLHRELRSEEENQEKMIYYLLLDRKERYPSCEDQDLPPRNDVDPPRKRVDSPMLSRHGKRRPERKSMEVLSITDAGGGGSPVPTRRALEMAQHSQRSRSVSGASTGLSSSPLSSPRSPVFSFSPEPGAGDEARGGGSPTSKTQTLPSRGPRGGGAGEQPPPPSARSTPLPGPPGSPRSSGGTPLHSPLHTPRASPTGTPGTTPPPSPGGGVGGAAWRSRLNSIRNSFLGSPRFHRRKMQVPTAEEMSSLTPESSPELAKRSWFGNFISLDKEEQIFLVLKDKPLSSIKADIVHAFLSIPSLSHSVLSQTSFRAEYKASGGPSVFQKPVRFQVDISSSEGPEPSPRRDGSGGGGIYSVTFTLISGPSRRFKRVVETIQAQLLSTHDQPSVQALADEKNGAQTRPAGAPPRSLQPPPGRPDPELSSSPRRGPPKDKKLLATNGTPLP
Protocol: as §1, §2, §3, §4, §5

p38d MAPK = p38d MAPK (Homo sapiens, UniProt O15264); test: Protein kinase assay ([γ-32P] ATP), p38d MAPK
Chain of p38d MAPK (O15264 whole entry): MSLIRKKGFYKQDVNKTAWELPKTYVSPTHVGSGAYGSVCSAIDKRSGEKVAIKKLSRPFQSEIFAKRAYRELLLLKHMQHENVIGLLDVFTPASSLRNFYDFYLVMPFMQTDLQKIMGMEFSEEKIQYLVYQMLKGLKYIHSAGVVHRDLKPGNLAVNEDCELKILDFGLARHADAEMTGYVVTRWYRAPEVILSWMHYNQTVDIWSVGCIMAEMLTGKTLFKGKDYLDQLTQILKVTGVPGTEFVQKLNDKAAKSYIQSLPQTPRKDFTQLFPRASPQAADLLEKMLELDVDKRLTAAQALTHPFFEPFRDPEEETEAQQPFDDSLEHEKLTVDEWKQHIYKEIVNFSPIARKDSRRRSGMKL
Protocol: as §1, §2, §3, §4, §5

PRAK = PRAK (Homo sapiens, UniProt Q8IW41); test: Protein kinase assay ([γ-32P] ATP), PRAK
Chain of PRAK (Q8IW41 whole entry, species assumed): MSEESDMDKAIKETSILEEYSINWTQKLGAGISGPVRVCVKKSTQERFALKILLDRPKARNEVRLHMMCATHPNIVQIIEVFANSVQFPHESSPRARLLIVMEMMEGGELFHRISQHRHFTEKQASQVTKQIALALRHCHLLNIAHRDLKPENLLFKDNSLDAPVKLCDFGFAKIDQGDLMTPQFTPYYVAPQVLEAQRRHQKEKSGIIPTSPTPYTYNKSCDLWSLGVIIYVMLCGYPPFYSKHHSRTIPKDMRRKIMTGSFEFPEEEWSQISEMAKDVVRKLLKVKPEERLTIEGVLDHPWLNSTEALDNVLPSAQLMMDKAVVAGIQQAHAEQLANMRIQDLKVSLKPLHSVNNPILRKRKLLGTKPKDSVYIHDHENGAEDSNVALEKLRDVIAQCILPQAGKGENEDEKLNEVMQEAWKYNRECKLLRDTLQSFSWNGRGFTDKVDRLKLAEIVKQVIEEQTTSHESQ
Protocol: as §1, §2, §3, §4, §5

CAMK1 = CAMK1 (Homo sapiens, UniProt Q14012); test: Protein kinase assay ([γ-32P] ATP), CAMK1
Chain of CAMK1 (Q14012 whole entry): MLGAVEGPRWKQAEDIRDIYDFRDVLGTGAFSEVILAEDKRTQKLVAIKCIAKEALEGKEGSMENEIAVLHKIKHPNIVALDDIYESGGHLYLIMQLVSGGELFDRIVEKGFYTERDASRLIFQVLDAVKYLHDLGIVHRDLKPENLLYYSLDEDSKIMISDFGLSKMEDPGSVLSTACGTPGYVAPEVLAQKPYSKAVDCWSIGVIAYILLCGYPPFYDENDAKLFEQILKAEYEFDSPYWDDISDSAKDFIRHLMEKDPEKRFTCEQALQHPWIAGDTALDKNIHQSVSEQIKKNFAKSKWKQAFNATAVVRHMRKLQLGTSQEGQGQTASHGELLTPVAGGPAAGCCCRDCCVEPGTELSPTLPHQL
Protocol: as §1, §2, §3, §4, §5

PAK4 = PAK4 (Homo sapiens, UniProt O96013); test: Protein kinase assay ([γ-32P] ATP), PAK4
Protocol: as §1, §2, §3, §4, §5

DAPK1 = DAPK1 (Homo sapiens, UniProt P53355); test: Protein kinase assay ([γ-32P] ATP), DAPK1
Protocol: as §1, §2, §3, §4, §5

[1] = 0.1 μM of compound I-1, DMSO control = 100%
[2] = 1 μM of compound I-1, DMSO control = 100%

Chain of ERK2 (P28482 whole entry): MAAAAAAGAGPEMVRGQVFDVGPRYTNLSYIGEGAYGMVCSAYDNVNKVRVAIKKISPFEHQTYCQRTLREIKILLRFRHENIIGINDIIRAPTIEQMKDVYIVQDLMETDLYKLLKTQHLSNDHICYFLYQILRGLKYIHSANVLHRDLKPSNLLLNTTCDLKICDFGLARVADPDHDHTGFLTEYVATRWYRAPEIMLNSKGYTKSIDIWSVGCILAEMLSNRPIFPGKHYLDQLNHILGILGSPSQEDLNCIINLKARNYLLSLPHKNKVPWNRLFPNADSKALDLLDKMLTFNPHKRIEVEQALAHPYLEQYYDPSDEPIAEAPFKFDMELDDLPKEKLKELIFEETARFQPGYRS

## Cc1cccc(C)c1NC(=O)N1C/C=C\COc2cccc(c2)Nc2cc1ncn2 [Compound I-1]
ERK2; [1]
  remaining activity at 0.1 µM: 104%
ERK2; [2]
  remaining activity at 1 µM: 80%
ZAP70; [1]
  remaining activity at 0.1 µM: 90%
ZAP70; [2]
  remaining activity at 1 µM: 98%
MST3; [1]
  remaining activity at 0.1 µM: 91%
MST3; [2]
  remaining activity at 1 µM: 87%
TTK; [1]
  remaining activity at 0.1 µM: 99%
TTK; [2]
  remaining activity at 1 µM: 79%
Src; [1]
  remaining activity at 0.1 µM: 25%
Src; [2]
  remaining activity at 1 µM: 24%
MSK1; [1]
  remaining activity at 0.1 µM: 107%
MSK1; [2]
  remaining activity at 1 µM: 81%
EPH-B1; [1]
  remaining activity at 0.1 µM: 40%
EPH-B1; [2]
  remaining activity at 1 µM: 43%
MKK2; [1]
  remaining activity at 0.1 µM: 119%
MKK2; [2]
  remaining activity at 1 µM: 77%
NUAK1; [1]
  remaining activity at 0.1 µM: 100%
NUAK1; [2]
  remaining activity at 1 µM: 93%
PIM1; [1]
  remaining activity at 0.1 µM: 132%
PIM1; [2]
  remaining activity at 1 µM: 93%
MAPKAP-K3; [1]
  remaining activity at 0.1 µM: 108%
MAPKAP-K3; [2]
  remaining activity at 1 µM: 89%
BRSK1; [1]
  remaining activity at 0.1 µM: 87%
BRSK1; [2]
  remaining activity at 1 µM: 66%
p38d MAPK; [1]
  remaining activity at 0.1 µM: 110%
p38d MAPK; [2]
  remaining activity at 1 µM: 73%
PRAK; [1]
  remaining activity at 0.1 µM: 107%
PRAK; [2]
  remaining activity at 1 µM: 84%
CAMK1; [1]
  remaining activity at 0.1 µM: 115%
CAMK1; [2]
  remaining activity at 1 µM: 56%
PAK4; [1]
  remaining activity at 0.1 µM: 100%
PAK4; [2]
  remaining activity at 1 µM: 78%
DAPK1; [1]
  remaining activity at 0.1 µM: 99%
DAPK1; [2]
  remaining activity at 1 µM: 85%
